Results taken from patent US20040024024A1, “Aromatic sulfone hydroxamates and their use as protease inhibitors” (priority 2001, published 2004).

Experiments:
Human recombinant MMP-1 = target: T1, Human recombinant MMP-1 (Homo sapiens, UniProt P03956); assay: In vitro MMP inhibition, Ki determination (fluorogenic substrate II); assay type: biochemical
T1 construct: made in house; host or cells: MMP-1-transfected HT-1080 cells (spent media)
T1 sequence (P03956 100-469): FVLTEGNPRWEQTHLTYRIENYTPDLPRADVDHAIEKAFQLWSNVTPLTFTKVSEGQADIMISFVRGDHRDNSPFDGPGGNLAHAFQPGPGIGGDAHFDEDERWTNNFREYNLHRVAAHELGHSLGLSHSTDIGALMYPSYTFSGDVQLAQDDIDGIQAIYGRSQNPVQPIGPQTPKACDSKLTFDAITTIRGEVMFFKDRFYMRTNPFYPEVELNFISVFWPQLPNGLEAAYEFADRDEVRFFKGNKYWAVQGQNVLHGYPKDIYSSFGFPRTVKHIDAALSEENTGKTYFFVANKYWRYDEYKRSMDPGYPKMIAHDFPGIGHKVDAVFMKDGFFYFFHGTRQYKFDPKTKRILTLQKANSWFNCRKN
Experimental: Several hydroxamates and salts thereof were analyzed in in vitro assays to determine their ability to inhibit the MMP cleavage of peptide substrates. Inhibition (Ki) and IC50 constants were calculated from the assayed hydroxamate-MMP interactions.
Human recombinant MMP-1, MMP-2, MMP-9, MMP-13, and MMP-14 were used in this assay. All enzymes were prepared in Assignee's laboratories following usual laboratory procedures. Protocols for the preparation and use of these enzymes are available in the scientific literature. See, e.g., Enzyme Nomenclature (Academic Press, San Diego, Calif., 1992) (and the citations therein). See also, Frije et al., J. Biol. Chem., 26(24), 16766-73 (1994).
The MMP-1 proenzyme was purified from the spent media of MMP-1-transfected HT-1080 cells provided by Dr. Harold Welgus of Washington University (St. Louis, Mo.). The protein was purified on a zinc chelating column.
All MMPs were activated using 4-aminophenylmercuric acetate (“APMA”, Sigma Chemical, St. Louis, Mo.) or trypsin. MMP-9 also was activated using human recombinant MMP-3 (purified in Assignee's laboratory following standard cloning and purification techniques).
Two fluorogenic, methoxycoumarin-containing polypeptide substrates were used in the MMP inhibition assays:
MCA-ArgProLeuGlyLeuDpaAlaArgGluArgNH2 (II)
Here, “Dpa” is 3-(2,4-dinitrophenyl)-L-2,3-diaminopropionyl group, and “MCA” is 7-methoxycoumarin-4-yl acetyl. Substrate (I) was purchased from Baychem (Redwood City, Calif.), and substrate II was prepared Assignee's laboratory. Substrate I was used in the IC50 determination assays, while substrate II was used in the Ki determination assays. In the absence of MMP inhibitory activity, either substrate is cleaved at the Gly-Leu peptide bond. This cleavage separates the highly fluorogenic peptide from the 2,4-dinitrophenyl quencher, thus resulting in increase of fluorescent intensity.
The stock solutions of the assayed hydroxamates (or salts thereof) were prepared in 1% dimethyl sulfoxide (DMSO). These stock solutions were diluted in Buffer A (100 mM Tris-HCl, 100 mM NaCl, 10 mM CaCl2, 0.05% polyoxyethylene 23 lauryl ether, pH 7.5) to obtain solutions with different hydroxamate concentrations, i.e., assay solutions with different concentrations of the assayed MMP inhibitory compound. The experiment controls contained the same amount of Buffer A/DMSO as the assayed sample, but contained no hydroxamate (or salt thereof).
The assays from which the Ki determinations were made were performed as follows. The assayed hydroxamate samples were incubated in separate wells of untreated white polystyrene plates (Nunc Nalgene International, Rochester, N.Y.), and analyzed on a Tecan SpectraFlour Plus plate reader. The excitation wavelength was 330 nm, and the emission wavelength—420 nm. All samples (assayed hydroxamates and controls) were incubated in separate plate wells at room temperature for 1 hr in the presence of 4 μM of MMP substrate (II). In the absence of MMP inhibitory activity, substrate II was cleaved at the Gly-Leu bond resulting in an increase of relative fluorescence. Inhibition was observed as a reduced rate of this increase in relative fluorescence. The various hydroxamates were analyzed using a single low enzyme concentration with a single substrate concentration fixed at or below the Km. This protocol is a modification of method by Knight et al., FEBS Lett., 296(3), 263-266 (1992). Apparent inhibitory constants were determined by non-linear regression of reaction velocity as a function of inhibitor and enzyme concentration using Morrison's equation, as described by Kuzmic, Anal. Biochem. 286, 45-50 (2000). Modifications were made in the non-linear regression method to allow a common control reaction rate and effective enzyme concentration to be shared between all dose-response relationships on a given assay plate. […]

Human recombinant MMP-14 = target: T2, Human recombinant MMP-14 (Homo sapiens, UniProt P50281); assay: In vitro MMP inhibition, IC50 determination (fluorogenic substrate I); assay type: biochemical; conditions: value outside parentheses
T2 construct: The catalytic domain enzyme was expressed in E. coli inclusion bodies, solubilized in urea; made in house
Procedure, shortened: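 Catalytic-domain MMP-14, expressed in E. coli and refolded, activated with APMA or trypsin; compounds incubated at room temperature with 4 μM fluorogenic substrate I (MCA-PLGL-Dpa-AR-NH2) in Tris/NaCl/CaCl2 buffer, pH 7.5. Fluorescence at ex 328/em 415 nm; IC50 from loss of fluorescence versus inhibitor concentration.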

Ki (Human recombinant MMP-1; value in parentheses) [µM] | SMILES | other results
– | Cc1ccccc1-c1cccc(CCCOc2ccc(S(=O)(=O)C3(C(=O)NO)CCOCC3)cc2)c1 [Example 164] | Ki (Human recombinant MMP-1; value in parenthesis): > 10 µM
– | Cc1ccc(-c2cccc(CCCOc3ccc(S(=O)(=O)C4(C(=O)NO)CCOCC4)cc3)c2)cc1C [Example 165] | Ki (Human recombinant MMP-1; value in parenthesis): > 10 µM
> 10 | O=C(NO)C1(S(=O)(=O)c2ccc(OCCCc3cncc(Br)c3)cc2)CCOCC1 [Example 522] | –
– | O=C(NO)C1(S(=O)(=O)c2ccc(OCCCc3cncc(-c4ccccc4)c3)cc2)CCOCC1 [Example 524] | IC50 (Human recombinant MMP-14): > 10 µM
> 10 | O=C(COc1ccc(S(=O)(=O)C2(C(=O)NO)CCOCC2)cc1)c1cccc(-c2ccccc2)c1 [Example 563] | –
3.06 | O=C(CCCOc1ccc(S(=O)(=O)C2(C(=O)NO)CCOCC2)cc1)Nc1cccc(I)c1 [Example 570] | –
> 10 | O=C(NO)C1(S(=O)(=O)c2ccc(OCCCc3cccc(-n4ccnc4)c3)cc2)CCOCC1 [Example 574] | –
> 10 | O=C(NO)C1(S(=O)(=O)c2ccc(OCCCc3nc(-c4cccnc4)no3)cc2)CCOCC1 [Example 578] | –
2.76 | O=C(NO)C1(S(=O)(=O)c2ccc(OCCCc3nc(-c4ccccc4)no3)cc2)CCOCC1 [Example 584] | –
– | O=C(NO)C1(S(=O)(=O)c2ccc(OCCCc3cccc(-c4cccs4)c3)cc2)CCOCC1 [Example 595] | IC50 (Human recombinant MMP-14): > 10 µM
> 10 | O=C(NO)C1(S(=O)(=O)c2ccc(OCCCc3cccc(-c4ccc(C(F)(F)F)cc4)c3)cc2)CCOCC1 [Example 625] | –
> 10 | O=C(NO)C1(S(=O)(=O)c2ccc(OCCCc3cccc(-c4ccc5c(c4)OCCO5)c3)cc2)CCOCC1 [Example 627] | –
> 10 | O=C(NO)C1(S(=O)(=O)c2ccc(OCCCc3cccc(-c4ccc5ccccc5c4)c3)cc2)CCOCC1 [Example 629] | –
> 10 | O=C(NO)C1(S(=O)(=O)c2ccc(OCCCc3cccc(-c4csc5ccccc45)c3)cc2)CCOCC1 [Example 631] | –
> 10 | O=C(NO)C1(S(=O)(=O)c2ccc(OCCCc3cccc(-c4cc5ccccc5s4)c3)cc2)CCOCC1 [Example 633] | –
> 10 | O=C(NO)C1(S(=O)(=O)c2ccc(OCCCc3cccc(-c4coc5ccccc45)c3)cc2)CCOCC1 [Example 634] | –
> 10 | C=Cc1ccc(-c2cccc(CCCOc3ccc(S(=O)(=O)C4(C(=O)NO)CCOCC4)cc3)c2)cc1 [Example 635] | –
> 10 | O=C(NO)C1(S(=O)(=O)c2ccc(OCCCc3cccc(-c4ccccc4O)c3)cc2)CCOCC1 [Example 636] | –
> 10 | O=C(NO)C1(S(=O)(=O)c2ccc(OCCCc3cccc(-c4cccc5ccccc45)c3)cc2)CCOCC1 [Example 638] | –
> 10 | Cc1ccc(-c2cccc(CCCOc3ccc(S(=O)(=O)C4(C(=O)NO)CCOCC4)cc3)c2)s1 [Example 639] | –
